The test system of assay [1] is H1 human embryonic stem cells. Briefly: Secondary assay: panel of compounds with growth factor combinations and muscimol, no activin A (Example 6, Table 5). The class given is cell-based. The method, then:
Clusters of H1 human embryonic stem cells were grown on reduced growth factor […]™ (Invitrogen; Cat #356231)-coated tissue culture plastic. Cells were passaged using collagenase (Invitrogen; Cat #17104-019) treatment and gentle scraping, washed to remove residual enzyme, and plated with even dispersal at a ratio of 1:1 (surface area) on reduced growth factor […]™-coated 96-well black plates (Packard ViewPlates; PerkinElmer; Cat #6005182) using volumes of 100 μl/well. Cells were allowed to attach as clusters and then recover log phase growth over a 1 to 3 day period, feeding daily with MEF-conditioned medium supplemented with 8 ng/ml bFGF (R&D Systems; Cat #233-FB). Plates were maintained at 37° C., 5% CO2 in a humidified box throughout the duration of the assay. Stocks of growth factors purchased from R&D Systems were EGF (Cat #236-EG), FGF4 (Cat #235-F4), PDGF-A (Cat #221-AA), PDGF-D (Cat #1159-SB), PDGF-A/B (Cat #222-AB), and VEGF (Cat #293-VE). […] All growth factors were solubilized in PBS with 0.1% BSA (Sigma; Cat #A7888) and stored frozen at −80° C. […] Cat #D2650) and stored frozen at −80° C. Compounds were available as 5 mM stocks in 96-well plate format, solubilized in 100% DMSO and stored at −80° C. Compounds were further diluted to an intermediate concentration of 0.2 mM in 50 mM HEPES (Invitrogen; Cat #15630-080), 20% DMSO and stored at 4° C. All growth factors and inhibitors were prepared in a deep well, 96-well polypropylene plate, diluted to 5× intermediate stocks in DMEM:F12 base medium at the beginning of assay and stored at 4° C. A secondary screening assay was conducted, testing in triplicate and feeding on alternate days over the four-day assay timeframe. Assays were initiated by aspirating culture medium from each well followed by three washes in PBS to remove residual growth factors and serum. Test volumes of 80 μl per well were added back containing DMEM:F12 base medium (Invitrogen; Cat #11330-032) supplemented with 0.625% FCS (HyClone; […] All remaining growth factors were tested at a final assay concentration of 50 ng/ml (EGF, FGF4, PDGF-A, PDGF-A/B, VEGF). […] At the conclusion of four-days of culture, assay plates were washed twice with PBS, fixed with 4% paraformaldehyde (Alexis Biochemical; Cat #ALX-350-011) at room temperature for 20 minutes, then washed three times with PBS and permeabilized with 0.5% Triton X-100 (Sigma; Cat #T8760-2) for 20 minutes at room temperature. Cells were washed again three times with PBS and blocked with 4% chicken serum (Invitrogen; Cat #16110082) in PBS for 30 minutes at room temperature. Primary antibody (goat anti-human SOX17; R&D Systems; cat #AF1924) was diluted 1:100 in 4% chicken serum and added to each well for one hour at room temperature. Alexa Fluor 488 conjugated secondary antibody (chicken anti-goat IgG; Molecular Probes; Cat #AZ1467) was diluted 1:200 in PBS and added to each sample well after washing three times with PBS. To counterstain nuclei, 4 μg/ml Hoechst 33342 (Invitrogen; Cat #H3570) was added for ten minutes at room temperature. Plates were washed once with PBS and left in 100 μl/well PBS for imaging. Imaging was performed using an IN Cell Analyzer 1000 (GE Healthcare) utilizing the 51008bs dichroic for cells stained with Hoechst 33342 and Alexa Fluor 488. Exposure times were optimized from positive control wells and from untreated negative control wells stained with secondary antibody alone. Images from 15 fields per well were acquired to compensate for any cell loss during the bioassay and subsequent staining procedures. […] Segmentation for the nuclei was determined based on grayscale levels (baseline range 100-300) and nuclear size. Averages and standard deviations were calculated for each replicate data set. Total SOX17 protein expression was reported as total intensity or integrated intensity, defined as total fluorescence of the cell multiplied by the area of the cell. […]

Assay [2] has as its system H1 human embryonic stem cells. Briefly: Analog screening with GDF-8 and growth factor/agonist pool (Example 8, Tables 7 and 8). Further details: Cell Number, % of positive control / Sox17 Expression, % of positive control: tested at 2.5 µM. The class given is cell-based. The method, then:
Briefly, clusters of H1 human embryonic stem cells were grown on reduced growth factor […]™ (Invitrogen; Cat #356231)-coated tissue culture plastic. Cells were passaged using collagenase (Invitrogen; Cat #17104-019) treatment and gentle scraping, washed to remove residual enzyme, and plated with even dispersal at a ratio of 1:1 (surface area) on reduced growth factor […]™-coated 96-well black plates (Packard ViewPlates; PerkinElmer; Cat #6005182) using volumes of 100 μl/well. Cells were allowed to attach as clusters and then recover log phase growth over a 1 to 3 day period, feeding daily with MEF conditioned medium supplemented with 8 ng/ml bFGF (R&D Systems; Cat #233-FB). Plates were maintained at 37° C., 5% CO2 in a humidified box throughout the duration of assay. Growth factors purchased from R&D Systems were EGF (Cat #236-EG), FGF4 (Cat #235-F4), PDGF-A (Cat #221-AA), PDGF-D (Cat #1159-SB), PDGF-A/B (Cat #222-AB). […] Screening was conducted using a library of compounds that were made available as 5 mM stocks in 96-well plate format, solubilized in 100% DMSO (Sigma; Cat #D2650) and stored at −80° C. The compounds were further diluted to an intermediate concentration of 0.2 mM in 50 mM HEPES (Invitrogen; Cat #15630-080), 20% DMSO and stored at 4° C. Test conditions were performed in single wells, feeding on alternate days over a four-day assay period. Primary screening assays were initiated by aspirating culture medium from each well followed by three washes in PBS (Invitrogen; Cat #14190) to remove residual growth factors and serum. On the first day of assay, test volumes of 200 μl per well were added back containing DMEM:F12 base medium (Invitrogen; Cat #11330-032) supplemented with 0.5% FCS (HyClone; […] Cat #1324-WN) plus 2.5 μM compound. All remaining growth factors were tested at a final assay concentration of 50 ng/ml (EGF, FGF4, PDGF-A, PDGF-A/B, VEGF) with the exception of GDF-8 tested at 25 ng/ml. […] Cat #120-14). […] All remaining growth factors were tested at a final assay concentration of 50 ng/ml (EGF, FGF4, PDGF-A, PDGF-A/B, VEGF) with the exception of GDF-8 tested at 25 ng/ml. […] Cat #120-14). Negative control samples contained DMEM:F12 base medium supplemented with 2% FCS. […] At the conclusion of four-days of culture, assay plates were washed twice with PBS (Invitrogen; Cat #14190), fixed with 4% paraformaldehyde (Alexis Biochemical; Cat #ALX-350-011) at room temperature for 20 minutes, then washed three times with PBS and permeabilized with 0.5% Triton X-100 (Sigma; Cat #T8760-2) for 20 minutes at room temperature. Cells were washed again three times with PBS and blocked with 4% chicken serum (Invitrogen; Cat #16110082) in PBS for 30 minutes at room temperature. Primary antibody (goat anti-human SOX17; R&D Systems; Cat #AF1924) was diluted 1:100 in 4% chicken serum and added to each well for one hour at room temperature. Alexa Fluor 488 conjugated secondary antibody (chicken anti-goat IgG; Molecular Probes; Cat #AZ1467) was diluted 1:200 in PBS and added to each sample well after washing three times with PBS. To counterstain nuclei, 4 μg/ml Hoechst 33342 (Invitrogen; Cat #H3570) was added for ten minutes at room temperature. Plates were washed once with PBS and left in 100 μl/well PBS for imaging. Imaging was performed using an IN Cell Analyzer 1000 (GE Healthcare) utilizing the 51008bs dichroic for cells stained with Hoechst 33342 and Alexa Fluor 488. Exposure times were optimized from positive control wells and from untreated negative control wells stained with secondary antibody alone. Images from 15 fields per well were acquired to compensate for any cell loss during the bioassay and subsequent staining procedures. […] Segmentation for the nuclei was determined based on gray-scale levels (baseline range 100-300) and nuclear size. Averages and standard deviations were calculated for each replicate data set. […]

Where [3] appears, read: Plate 1, compound + EGF, FGF, PDGF-A, VEGF, PDGF-D, muscimol, GDF8.
Where [4] appears, read: Plate 1, compound + EGF, FGF, PDGF-A, VEGF, PDGF-D, muscimol, GDF8, positive control Activin A/Wnt3a.
[5] abbreviates: Table 8: hits with greater than 25% activity of the positive control, with GDF-8 and growth factors/agonists.
Where [6] appears, read: EGF, FGF, PDGF-A, VEGF, PDGF-D, muscimol, GDF8.
The mark [7] stands for this setting: Plate 2, compound + EGF, FGF, PDGF-A, VEGF, PDGF-D, muscimol, GDF8.
Setting [8] is: Plate 2, compound + EGF, FGF, PDGF-A, VEGF, PDGF-D, muscimol, GDF8, positive control Activin A/Wnt3a.

For the compound “9-Methyl-2,3,4,5,7,8,9,10-octahydro-16H-17,21-(azeno)-11,15-(metheno)pyrido[3,2-g][1,3,5,9,13,17]hexaazacyclotricosin-6(1H)-one [Compound 39]”, the “SOX17 expression, % of positive control response” value in assay [1] (with EGF+FGF4+PDGF-A+VEGF, no activin A) is listed as 31 % of positive control response; in assay [1] (with EGF+FGF4+PDGF-AB, no activin A), 68 % of positive control response; in assay [1] (with EGF+FGF4, no activin A) it was 77 % of positive control response.
For `O=C1NCCCc2cncc(c2)-c2ncnc(n2)Nc2cc(Cl)cc(c2)CN2CCC[C@@H]12` [Compound 36, (18S)-10-Chloro-3,5,7,14,20,26,30-heptaazapentacyclo[22.3.1.1˜2,6˜0.1˜8,12˜0.0˜14,18˜]triaconta-1(28), 2(30), 3,5,8(29), 9,11,24,26-nonaen-19-one], in assay [2] (setting [3]), the “Cell Number, Average Total Cell Number” value turned out to be 7964 and the “Sox17 Expression, Average Total Intensity” value is 9.47E+07. Further, in assay [2] (setting [4]), the “Cell Number, % of positive control” value is recorded as 59.5 % of positive control and the “Sox17 Expression, % of positive control” value is given as 37.8 % of positive control. Also, in assay [2] (setting [5]), the “Cell Number, % of positive control” value was 59.5 % of positive control; the “Sox17 Expression, % of positive control” value was 37.8 % of positive control; the “Sox17 Expression, Average Total Intensity” value is reported as 9.47E+07.
As for `CCN1CC(=O)NCCCc2cccc(c2)-c2ncnc(n2)Nc2cc(Cl)cc(c2)C1` [Compound 16, 10-Chloro-14-ethyl-3,5,7,14,17,27-hexaazatetracyclo[19.3.1.1˜2,6˜1˜8,12˜]heptacosa-1(25), 2(27), 3,5,8(26), 9,11,21,23-nonaen-16-one], in assay [2] (setting [6]), the “Cell Number, % of positive control” value was 62.0%; the “Cell Number, Average Total Cell Number” value stood at 8303; the “Sox17 Expression, % of positive control” value is given as 36.7%; the “Sox17 Expression, Average Total Intensity” value is on record as 9.20E+07. Also, in assay [2] (setting [7]), the “Cell Number, Average Total Cell Number” value worked out at 9064 and the “Sox17 Expression, Average Total Intensity” value is 1.48E+08. In addition, in assay [2] (setting [8]), the “Cell Number, % of positive control” value is given as 57.3 % of positive control and the “Sox17 Expression, % of positive control” value is 51.8 % of positive control.
As for `O=C1NCCCc2cncc(c2)-c2ncnc(n2)Nc2cc(Cl)cc(c2)CN2CCCC1C2` (stereo not shown) [Compound 38, 5-Chloro-1,8,10,12,16,22,30-heptaazapentacyclo[22.2.2.1˜3,7˜0.1˜9,13˜0.1˜14,18˜]hentriaconta-3(31), 4,6,9(30), 10,12,14(29), 15,17-nonaen-23-one], in assay [2] (setting [7]), the “Cell Number, Average Total Cell Number” value is reported as 9650 and the “Sox17 Expression, Average Total Intensity” value came out at 2.46E+08. In assay [2] (setting [8]), the “Cell Number, % of positive control” value is 61.0 % of positive control and the “Sox17 Expression, % of positive control” value is listed as 86.2 % of positive control. Moreover, in assay [2] (setting [5]), the “Cell Number, % of positive control” value is 61.0 % of positive control; the “Sox17 Expression, % of positive control” value is 86.2 % of positive control; the “Sox17 Expression, Average Total Intensity” value stood at 2.46E+08.

For the origin of these results see US9593305B2, “Differentiation of pluripotent stem cells” (Janssen Biotech, Inc., priority 2008, dated 2017).
